Literature values in patent US11440912B2, “Process for the preparation of ribociclib and its salts” (FRESENIUS KABI ONCOLOGY LIMITED, priority 2017, dated 2022).

Details: at 80% RH

Compound: CN(C)C(=O)c1cc2cnc(Nc3ccc(N4CCNCC4)cn3)nc2n1C1CCCC1.O=C(O)CCC(=O)O [ribociclib succinate]
- ribociclib succinate converts to hydrated form from the non-hydrated form: 0.52%
